Experiments:
VAP-1/SSAO [1] = molecular target: T1, VAP-1/SSAO (Homo sapiens (Human), UniProt Q16853); assay: VAP-1 cell activity assay (HUVEC or CHO cells transfected with VAP-1/pCDNA (3.1) plasmid, Amplex Red); assay type: cell-based; settings: HUVEC or CHO cells transfected with VAP-1 plasmid; read-out: VAP-1/SSAO Cellular Inhibitory Activity IC50
Procedure: The inhibition of the sample on VAP-1 cell activity was measured by using an Amplex® Red Monoamine Oxidase kit (Invitrogen #A12214).
The cultured HUVEC or CHO cells were plated into a 6-well plate at a density of 0.8 M/well, placed in a 37° C., 5% CO2 incubator for incubation for 24 hours, and then the cells was transferred with a Lipo2000 reagent and a VAP-1/pCDNA (3.1) plasmid, and liquid was changed for the cells after 5 hours (Lipo2000 was toxic to the cells); after 24 hours, the cells were digested and plated into 384-well plates with a density of 25 μl, 10000 cells/well, and liquid was replaced with medium without FBS for the cells after 6-7 hours, and the cell plates were incubated overnight at 37° C. in a 5% CO2 incubator.
1) Dilution of the compound: serial dilution in 4× gradient was carried out with 100% DMSO, 10 points were diluted, the starting concentration of the to-be-tested compound was 0.5 mM (final concentration was 1 μM); 100 nl of compound solution was transferred to a 384-well cell assay plate with ECHO. Negative control wells: 100 nl of DMSO; background control wells: 100 nl DMSO+25 μL medium.
2) The reaction was carried out in the dark at room temperature for 30 min.
3) Preparation of Amplex Red reagent+HRP+benzylamine substrate working solution: Amplex Red reagent+HRP+benzylamine substrate working solution (200 μM Amplex Red reagent+1 U/mL HRP+1 mM benzylamine): 45 μl of 20 mM Amplex Red reagent mother solution, 22.5 μl of 200 U/ml horseradish peroxidase (HRP) mother solution and 45 ul of 100 mM benzylamine were tanken and added to 4.3875 ml of 1× reaction buffer.
4) After 30 min, 25 μl of the substrate working solution was added to a 384-well plate, and a final concentration was 100 μM Amplex Red reagent+0.5 U/mL HRP+0.5 mM benzylamine, respectively.
5) The reaction was carried out in the dark at room temperature for 60 minutes, and the fluorescence value was measured by Envision: the excitation wave was 535 nm, and the emission wave was 590 nm.
6) Inhibition rate calculation formula: % inhibition rate=(1−(test hole minus background−positive control well minus background)/(negative control well minus background-positive control well minus background))*100
7) The data were analyzed with Prism. The IC50 of the sample against VAP-1 cells was calculated.

[2] = Distribution of compounds in liver and blood of CD-1 mice; assay type: in vivo; settings: single oral dose
Procedure: Experimental purpose: distribution of compounds in liver and blood of CD-1 mice was tested;
CD-1 Mice (male, 25-35 g, 6-9 weeks old, Shanghai Slack);
Experimental procedure: after oral administration, the drug was distributed in the liver and blood of rodents, candidate compounds in the experiment were formulated into a clear solution to be administered to mice in a single oral dose. The oral solvent was a certain proportion of an aqueous solution of hydroxypropyl P-cyclodextrin or a physiological saline solution. The concentration of the drug in the liver and blood was measured at 1 hour and 4 hours after administration.

VAP-1/SSAO [3] = molecular target: T1, VAP-1/SSAO; assay: Human VAP-1 enzyme activity assay (Amplex Red Monoamine Oxidase kit); assay type: biochemical; settings: 10 nM VAP-1 enzyme, 30 min preincubation, benzylamine substrate; read-out: Human Recombinant VAP-1/SSAO Enzyme Inhibitory Activity IC50
Procedure: Human VAP-1 enzyme activity assay:
The inhibition of the sample on VAP-enzyme activity was measured by using an Amplex® Red Monoamine Oxidase kit (Invitrogen #A12214). 100 nL of the gradiently-diluted to-be-tested compound (solvent DMSO) was added to a 384-well plate. 25 μL of 10 nM VAP-1 enzyme solution was added and incubated for 30 minutes at room temperature. A substrate mixture of VAP-1 enzyme (200 μM Amplex Red, 1 U/mL HRP, 1 mM Benzylamine) was added and incubated for 60 minutes at room temperature. After the incubation, the fluorescent signal was read with a microplate reader Envision (excitation light wavelength 530-560 nm, emission light wavelength 590 nm). The fluorescence signal value after the background signal was removed was analyzed by Prism software, and the IC50 of the sample against the VAP-1 enzyme was calculated.

[4] = Compound pharmacokinetic evaluation in SD rats; assay type: in vivo; settings: male, Sprague-Dawley, rat, plasma
Procedure: Experimental purpose: compound pharmacokinetics were tested in SD rats
Sprague Dawley rats (male, 200-300 g, 7-9 weeks old, Shanghai Slack)
Experimental procedure: the pharmacological characteristics of the compound after intravenous and oral administration were tested in rodents by standard protocol, candidate compounds in the experiment was prepared into clear solutions to be administered to the rats in a single intravenous injection and orally. The intravenous and oral solvents were a certain proportion of an aqueous hydroxypropyl 3-cyclodextrin solution or a physiological saline solution. Whole blood samples within 24 hours were collected, and centrifuged at 3000 g for 15 minutes, the supernatant was separated to obtain plasma samples, 4 times volume of acetonitrile solution containing internal standard was added to precipitate protein, centrifuging was conducted to take the supernatant, equal volume of water was added and centrifuging was conducted to the supernatant to be sampled. The LC-MS/MS analysis method was used to quantitatively analyze the plasma concentration, and the pharmacokinetic parameters such as peak concentration, peak time, clearance rate, half-life, area under the drug concentration-time curve, and bioavailability were calculated.

T1 sequence (Q16853 whole entry): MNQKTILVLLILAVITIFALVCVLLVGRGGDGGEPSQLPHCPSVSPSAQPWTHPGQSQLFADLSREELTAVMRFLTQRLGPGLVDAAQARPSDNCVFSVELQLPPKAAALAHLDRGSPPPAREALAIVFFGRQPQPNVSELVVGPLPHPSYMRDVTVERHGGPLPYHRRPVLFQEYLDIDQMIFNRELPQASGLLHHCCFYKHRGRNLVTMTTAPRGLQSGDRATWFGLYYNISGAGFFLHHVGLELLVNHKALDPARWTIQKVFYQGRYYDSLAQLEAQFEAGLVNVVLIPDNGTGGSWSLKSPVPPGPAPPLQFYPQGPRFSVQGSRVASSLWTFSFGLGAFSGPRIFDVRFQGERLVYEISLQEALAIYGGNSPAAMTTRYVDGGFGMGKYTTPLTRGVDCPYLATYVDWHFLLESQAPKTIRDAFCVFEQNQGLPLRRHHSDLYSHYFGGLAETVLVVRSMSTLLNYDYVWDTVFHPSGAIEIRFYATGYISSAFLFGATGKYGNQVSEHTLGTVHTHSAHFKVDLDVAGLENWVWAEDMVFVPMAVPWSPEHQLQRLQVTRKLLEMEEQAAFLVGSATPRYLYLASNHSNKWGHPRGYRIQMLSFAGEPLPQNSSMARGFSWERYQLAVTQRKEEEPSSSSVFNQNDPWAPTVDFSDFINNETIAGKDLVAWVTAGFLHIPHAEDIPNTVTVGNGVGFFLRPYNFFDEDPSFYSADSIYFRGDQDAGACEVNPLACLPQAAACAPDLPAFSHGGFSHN

IC50 (VAP-1/SSAO [1]): 0.3 nM
Liver Concentration ([2]; @1.0 hour): 13520
Liver Concentration/Plasma Concentration ratio ([2]; @1.0 hour): 15
Plasma Concentration ([2]; @1.0 hour): 934
Liver Concentration ([2]; @4.0 hour): 3364
Liver Concentration/Plasma Concentration ratio ([2]; @4.0 hour): 17
Plasma Concentration ([2]; @4.0 hour): 190
IC50 (VAP-1/SSAO [3]): 0.2 nM
Tmax ([4]; oral, read-out: Peak Time Tmax): 1.5 h
bioavailability ([4]; po, read-out: Bioavailability F): 99%
AUC ([4]; read-out: Concentration Integral AUC): 9.31 µM·h
Cmax ([4]; single intravenous injection and oral, read-out: Peak Concentration Cmax): 2.34 µM
Compound: Cl.Cn1nc(-c2ccc(OC/C(=C/F)CN)cc2)nc1C(F)F [WX126]
